Assay results: ChEMBL document CHEMBL5678818, “Discovery of potent SOS1 inhibitors that block RAS activation via disruption of the RAS-SOS1 interaction” (Proc Natl Acad Sci U S A, 2019)
Activity calls are given as the source filed them. No cut-off for these calls is given here.

Experiments:
[1] = molecular target: T1, Inhibitor of nuclear factor kappa-B kinase subunit beta (Homo sapiens) (UniProt O14920); assay: Inhibition of IKK-beta (unknown origin) assessed as residual activity at 100 nM by KINOMEscan analysis relative to control
T1 sequence (whole entry): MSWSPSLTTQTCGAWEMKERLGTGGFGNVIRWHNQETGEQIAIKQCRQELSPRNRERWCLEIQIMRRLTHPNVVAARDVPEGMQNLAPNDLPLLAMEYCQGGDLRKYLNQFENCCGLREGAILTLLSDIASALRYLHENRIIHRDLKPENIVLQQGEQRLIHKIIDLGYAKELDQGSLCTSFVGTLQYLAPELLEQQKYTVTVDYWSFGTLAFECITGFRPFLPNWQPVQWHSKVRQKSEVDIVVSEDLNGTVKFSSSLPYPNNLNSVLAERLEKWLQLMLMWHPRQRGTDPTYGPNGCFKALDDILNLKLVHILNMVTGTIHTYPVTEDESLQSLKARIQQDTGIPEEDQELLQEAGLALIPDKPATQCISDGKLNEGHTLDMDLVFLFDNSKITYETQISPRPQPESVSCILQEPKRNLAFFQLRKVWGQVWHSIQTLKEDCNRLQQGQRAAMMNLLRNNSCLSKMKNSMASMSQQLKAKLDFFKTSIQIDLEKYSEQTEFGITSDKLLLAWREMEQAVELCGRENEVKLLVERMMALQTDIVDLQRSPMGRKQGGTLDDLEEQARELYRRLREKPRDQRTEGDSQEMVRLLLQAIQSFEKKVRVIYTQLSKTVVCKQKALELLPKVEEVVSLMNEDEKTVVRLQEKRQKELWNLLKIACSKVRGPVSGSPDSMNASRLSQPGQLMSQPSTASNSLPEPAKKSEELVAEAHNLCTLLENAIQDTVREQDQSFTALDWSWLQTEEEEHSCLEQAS

[2] = system: Tyrosine-protein kinase ABL1 (Homo sapiens), P00519 [M351T]; assay: Inhibition of phosphorylated ABL1 M351T mutant (unknown origin) assessed as residual activity at 100 nM by KINOMEscan analysis relative to control
[3] = molecular target: T2, Serine/threonine-protein kinase 3 (Homo sapiens) (UniProt Q13188); assay: Inhibition of MST2 (unknown origin) assessed as residual activity at 100 nM by KINOMEscan analysis relative to control
T2 sequence (whole entry): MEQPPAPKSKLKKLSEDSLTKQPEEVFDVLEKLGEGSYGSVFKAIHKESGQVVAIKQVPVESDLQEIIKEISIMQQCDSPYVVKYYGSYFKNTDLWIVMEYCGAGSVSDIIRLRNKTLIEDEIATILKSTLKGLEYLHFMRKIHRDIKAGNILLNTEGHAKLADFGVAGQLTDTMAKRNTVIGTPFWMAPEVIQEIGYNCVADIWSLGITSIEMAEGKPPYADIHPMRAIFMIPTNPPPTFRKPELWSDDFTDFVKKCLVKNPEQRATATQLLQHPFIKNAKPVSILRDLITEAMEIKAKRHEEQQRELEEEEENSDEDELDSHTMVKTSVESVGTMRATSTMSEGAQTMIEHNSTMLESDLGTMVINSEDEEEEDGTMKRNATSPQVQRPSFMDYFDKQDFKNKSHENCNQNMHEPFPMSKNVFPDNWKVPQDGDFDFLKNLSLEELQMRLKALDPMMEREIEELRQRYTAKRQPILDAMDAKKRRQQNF

[4] = molecular target: T3, Protein kinase C iota type (Homo sapiens) (UniProt P41743); assay: Inhibition of PRKCI (unknown origin) assessed as residual activity at 100 nM by KINOMEscan analysis relative to control
T3 sequence (whole entry): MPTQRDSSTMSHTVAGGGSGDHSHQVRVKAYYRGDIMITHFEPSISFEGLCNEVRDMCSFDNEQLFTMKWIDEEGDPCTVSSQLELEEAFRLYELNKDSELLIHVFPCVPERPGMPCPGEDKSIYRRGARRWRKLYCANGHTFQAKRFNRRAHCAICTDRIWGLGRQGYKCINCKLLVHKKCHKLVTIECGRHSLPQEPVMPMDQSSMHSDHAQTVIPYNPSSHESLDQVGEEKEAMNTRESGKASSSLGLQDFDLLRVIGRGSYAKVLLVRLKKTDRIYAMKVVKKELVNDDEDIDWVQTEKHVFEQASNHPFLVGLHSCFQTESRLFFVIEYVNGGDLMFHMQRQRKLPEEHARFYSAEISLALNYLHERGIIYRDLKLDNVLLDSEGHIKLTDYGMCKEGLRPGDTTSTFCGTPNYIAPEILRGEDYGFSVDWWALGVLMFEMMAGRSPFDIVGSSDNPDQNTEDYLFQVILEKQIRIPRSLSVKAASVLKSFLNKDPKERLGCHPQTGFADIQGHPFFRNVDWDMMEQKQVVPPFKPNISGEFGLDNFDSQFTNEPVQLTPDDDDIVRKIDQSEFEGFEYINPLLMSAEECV

[5] = system: Mast/stem cell growth factor receptor Kit (Homo sapiens), P10721 [V559D,V654A]; assay: Inhibition of KIT V559D/V654A mutant (unknown origin) assessed as residual activity at 100 nM by KINOMEscan analysis relative to control
Mast/stem cell growth factor receptor Kit (Homo sapiens), P10721 [V559D,V654A], sequence (P10721 whole entry V559D/V654A): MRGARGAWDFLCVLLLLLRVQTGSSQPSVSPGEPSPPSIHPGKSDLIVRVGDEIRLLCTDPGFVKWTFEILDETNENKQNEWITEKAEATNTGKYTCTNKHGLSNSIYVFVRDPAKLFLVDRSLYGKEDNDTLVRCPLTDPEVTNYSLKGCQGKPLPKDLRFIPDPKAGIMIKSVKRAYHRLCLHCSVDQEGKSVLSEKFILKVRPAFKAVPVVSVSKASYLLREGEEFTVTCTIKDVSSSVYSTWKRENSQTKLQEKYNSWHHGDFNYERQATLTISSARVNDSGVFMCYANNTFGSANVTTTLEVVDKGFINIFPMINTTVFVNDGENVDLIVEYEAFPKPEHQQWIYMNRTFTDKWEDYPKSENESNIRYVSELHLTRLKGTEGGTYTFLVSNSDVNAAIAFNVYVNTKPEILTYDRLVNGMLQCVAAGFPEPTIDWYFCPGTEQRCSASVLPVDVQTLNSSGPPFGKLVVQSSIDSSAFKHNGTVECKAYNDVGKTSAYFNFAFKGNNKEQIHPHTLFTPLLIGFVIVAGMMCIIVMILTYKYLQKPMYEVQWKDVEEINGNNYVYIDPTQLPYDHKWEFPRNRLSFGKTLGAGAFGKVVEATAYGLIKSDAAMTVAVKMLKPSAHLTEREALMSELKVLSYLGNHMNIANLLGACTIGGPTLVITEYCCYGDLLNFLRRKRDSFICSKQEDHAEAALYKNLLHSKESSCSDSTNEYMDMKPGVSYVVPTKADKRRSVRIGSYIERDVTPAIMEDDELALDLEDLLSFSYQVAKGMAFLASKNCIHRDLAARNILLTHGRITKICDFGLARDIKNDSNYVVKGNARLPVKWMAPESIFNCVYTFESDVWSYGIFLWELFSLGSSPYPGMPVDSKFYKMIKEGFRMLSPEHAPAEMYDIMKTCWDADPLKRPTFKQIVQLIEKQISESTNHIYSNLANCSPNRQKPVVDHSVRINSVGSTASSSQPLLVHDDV

[6] = molecular target: T4, Serine/threonine-protein kinase NLK (Homo sapiens) (UniProt Q9UBE8); assay: Inhibition of NLK (unknown origin) assessed as residual activity at 100 nM by KINOMEscan analysis relative to control
T4 sequence (whole entry): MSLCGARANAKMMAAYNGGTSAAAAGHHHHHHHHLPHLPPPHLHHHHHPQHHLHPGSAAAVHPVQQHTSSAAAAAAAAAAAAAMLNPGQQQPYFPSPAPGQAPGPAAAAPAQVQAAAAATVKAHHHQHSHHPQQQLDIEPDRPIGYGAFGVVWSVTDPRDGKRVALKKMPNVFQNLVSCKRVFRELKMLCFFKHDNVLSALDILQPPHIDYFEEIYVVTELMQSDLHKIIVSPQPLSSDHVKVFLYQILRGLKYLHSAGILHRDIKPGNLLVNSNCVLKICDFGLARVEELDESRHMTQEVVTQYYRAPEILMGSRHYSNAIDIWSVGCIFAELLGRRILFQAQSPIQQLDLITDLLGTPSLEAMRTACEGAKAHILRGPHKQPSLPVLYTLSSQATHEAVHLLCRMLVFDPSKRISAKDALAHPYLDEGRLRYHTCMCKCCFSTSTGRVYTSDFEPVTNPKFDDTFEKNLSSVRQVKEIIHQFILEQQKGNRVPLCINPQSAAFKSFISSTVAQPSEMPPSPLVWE

[7] = molecular target: RAC-beta serine/threonine-protein kinase (Homo sapiens) (UniProt P31751); assay: Inhibition of AKT2 (unknown origin) assessed as residual activity at 100 nM by KINOMEscan analysis relative to control
RAC-beta serine/threonine-protein kinase (Homo sapiens), sequence (P31751 whole entry, the tested form may be a part): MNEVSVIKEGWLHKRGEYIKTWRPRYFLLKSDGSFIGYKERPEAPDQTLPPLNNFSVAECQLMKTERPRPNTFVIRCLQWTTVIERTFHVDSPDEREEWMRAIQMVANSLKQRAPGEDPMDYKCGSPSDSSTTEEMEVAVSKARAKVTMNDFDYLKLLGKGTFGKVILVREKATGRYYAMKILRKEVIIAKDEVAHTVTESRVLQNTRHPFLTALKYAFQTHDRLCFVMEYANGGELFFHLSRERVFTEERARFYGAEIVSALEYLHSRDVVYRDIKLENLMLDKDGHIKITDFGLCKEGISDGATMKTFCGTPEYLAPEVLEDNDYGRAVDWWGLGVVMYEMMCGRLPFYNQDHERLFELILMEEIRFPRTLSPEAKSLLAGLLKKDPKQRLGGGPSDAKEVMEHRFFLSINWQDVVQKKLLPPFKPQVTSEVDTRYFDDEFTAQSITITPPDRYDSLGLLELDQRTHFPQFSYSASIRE

[8] = organism: Homo sapiens; assay: Inhibition of N-terminal His10-tagged recombinant human KRAS G12C/C118S mutant (1 to 169 residues) expressed in Escherichia coli/Series S C1 sensor chip-immobilized biotinylated N-terminal His10-tagged wild-type recombinant human SOS1 catalytic domain (564 to 1049 residues) expressed in Escherichia coli protein-protein interaction at 10 uM measured for 360 secs by SPR analysis; settings: time 360.0 sec

COc1cc2ncnc(N[C@H](C)c3cccc4ccccc34)c2cc1OC
Activity [1]: 84% | Activity [2]: 100% | Activity [3]: 92% | Activity [4]: 84% | Activity [5]: 100% | Activity [6]: 82% | Activity [7]: 88% | Activity [8]: Active
